pEC50: −log10 of the molar value. Like-named read-outs stand apart in the source and are kept apart here.
What was measured:
mice [1] = test: insulin sensitivity in mice with chronic ingestion (FIG. 4); format: in vivo; conditions: mice chronically fed high fat diet containing 0.2 wt %, vs same diet without
mice [2] = test: body weight gain in mice with chronic ingestion (FIG. 3); format: in vivo; conditions: mice chronically fed high fat diet containing 0.2 wt %, vs same diet without
mice [3] = test: short term food intake after a single ingestion in mice (FIG. 5); format: in vivo; conditions: vs sham gavage
TRPV1 [4] = molecular target: T1, TRPV1 (Homo sapiens, UniProt Q8NER1); conditions: cited from earlier work
T1 construct: expressed in transfected cells

mice [5] = test: gastric emptying after a single ingestion in mice (FIG. 6); format: in vivo; conditions: vs sham gavage
TRPA1 [6] = conditions: read-out: EC50 of TRPA1 activation; cited from earlier work
TRPA1 [7] = molecular target: T2, TRPA1 (Homo sapiens, UniProt O75762); test: desensitization of TRPA1 by pretreatment before cinnamaldehyde (FIGS. 8A, 8B); format: cell-based; conditions: applied to cells fifteen minutes before cinnamaldehyde
T2 construct: expressed in transfected cells
Procedure: (§1) Specifically, cuminaldehyde was applied to cells fifteen minutes before cinnamaldehyde, icilin and capsaicin, which are specific agonists for TRPA1, TRPM8 and TRPV1 cation channels, respectively. After specific agonist application, the cation channel expression was measured. […] The left bars in each graph represent the controls lacking cuminaldehyde pretreatment, the right bars in each graph represent the samples including cuminaldehyde pretreatment.

TRPM8 [8] = molecular target: T3, TRPM8 (Homo sapiens, UniProt Q7Z2W7); test: desensitization of TRPM8 by pretreatment before icilin (FIGS. 8A, 8B); format: cell-based; parameters: host or cells: cells, not specified; conditions: applied to cells fifteen minutes before icilin
Procedure: as §1

TRPV1 [9] = molecular target: T1, TRPV1; test: desensitization of TRPV1 by pretreatment before capsaicin (FIGS. 8A, 8B); format: cell-based; conditions: applied to cells fifteen minutes before capsaicin
Procedure: as §1

TRPV1 [10] = molecular target: T1, TRPV1; test: in vitro activation of TRPV1 in cells (FIG. 7); format: cell-based; conditions: FIG. 7, triangles
TRPA1 [11] = molecular target: T2, TRPA1; test: in vitro activation of TRPA1 in cells (FIG. 7); format: cell-based
TRPM8 [12] = molecular target: T3, TRPM8; test: in vitro activation of hTRPM8 in cells (FIG. 7); format: cell-based; parameters: expressed in transfected cells; conditions: FIG. 7, squares
"empty" cells = test: in vitro activation of "empty" cells (FIG. 7); format: cell-based

T1 sequence (Q8NER1 whole entry, species assumed): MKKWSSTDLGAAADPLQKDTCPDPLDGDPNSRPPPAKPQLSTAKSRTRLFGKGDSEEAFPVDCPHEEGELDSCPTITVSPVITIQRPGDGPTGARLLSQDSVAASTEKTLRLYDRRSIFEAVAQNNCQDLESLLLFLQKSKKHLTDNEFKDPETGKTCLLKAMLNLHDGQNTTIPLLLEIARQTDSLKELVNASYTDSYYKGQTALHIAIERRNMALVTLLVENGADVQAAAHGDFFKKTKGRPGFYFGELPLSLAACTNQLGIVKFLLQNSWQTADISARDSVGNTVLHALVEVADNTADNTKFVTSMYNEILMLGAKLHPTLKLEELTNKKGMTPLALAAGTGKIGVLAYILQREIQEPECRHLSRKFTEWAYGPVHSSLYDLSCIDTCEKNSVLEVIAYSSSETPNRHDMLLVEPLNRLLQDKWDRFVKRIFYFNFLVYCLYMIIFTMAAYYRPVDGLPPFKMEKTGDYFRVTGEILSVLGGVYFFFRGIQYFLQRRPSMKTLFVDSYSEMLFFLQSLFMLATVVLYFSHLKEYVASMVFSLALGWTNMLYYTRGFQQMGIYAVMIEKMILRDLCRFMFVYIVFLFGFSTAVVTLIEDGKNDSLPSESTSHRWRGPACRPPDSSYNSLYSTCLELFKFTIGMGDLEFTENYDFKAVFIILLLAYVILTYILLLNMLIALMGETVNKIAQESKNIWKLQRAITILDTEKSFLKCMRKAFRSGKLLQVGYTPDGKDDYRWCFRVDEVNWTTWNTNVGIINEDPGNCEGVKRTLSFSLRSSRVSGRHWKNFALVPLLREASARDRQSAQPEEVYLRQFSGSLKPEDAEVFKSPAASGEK
T2 sequence (O75762 whole entry, species assumed): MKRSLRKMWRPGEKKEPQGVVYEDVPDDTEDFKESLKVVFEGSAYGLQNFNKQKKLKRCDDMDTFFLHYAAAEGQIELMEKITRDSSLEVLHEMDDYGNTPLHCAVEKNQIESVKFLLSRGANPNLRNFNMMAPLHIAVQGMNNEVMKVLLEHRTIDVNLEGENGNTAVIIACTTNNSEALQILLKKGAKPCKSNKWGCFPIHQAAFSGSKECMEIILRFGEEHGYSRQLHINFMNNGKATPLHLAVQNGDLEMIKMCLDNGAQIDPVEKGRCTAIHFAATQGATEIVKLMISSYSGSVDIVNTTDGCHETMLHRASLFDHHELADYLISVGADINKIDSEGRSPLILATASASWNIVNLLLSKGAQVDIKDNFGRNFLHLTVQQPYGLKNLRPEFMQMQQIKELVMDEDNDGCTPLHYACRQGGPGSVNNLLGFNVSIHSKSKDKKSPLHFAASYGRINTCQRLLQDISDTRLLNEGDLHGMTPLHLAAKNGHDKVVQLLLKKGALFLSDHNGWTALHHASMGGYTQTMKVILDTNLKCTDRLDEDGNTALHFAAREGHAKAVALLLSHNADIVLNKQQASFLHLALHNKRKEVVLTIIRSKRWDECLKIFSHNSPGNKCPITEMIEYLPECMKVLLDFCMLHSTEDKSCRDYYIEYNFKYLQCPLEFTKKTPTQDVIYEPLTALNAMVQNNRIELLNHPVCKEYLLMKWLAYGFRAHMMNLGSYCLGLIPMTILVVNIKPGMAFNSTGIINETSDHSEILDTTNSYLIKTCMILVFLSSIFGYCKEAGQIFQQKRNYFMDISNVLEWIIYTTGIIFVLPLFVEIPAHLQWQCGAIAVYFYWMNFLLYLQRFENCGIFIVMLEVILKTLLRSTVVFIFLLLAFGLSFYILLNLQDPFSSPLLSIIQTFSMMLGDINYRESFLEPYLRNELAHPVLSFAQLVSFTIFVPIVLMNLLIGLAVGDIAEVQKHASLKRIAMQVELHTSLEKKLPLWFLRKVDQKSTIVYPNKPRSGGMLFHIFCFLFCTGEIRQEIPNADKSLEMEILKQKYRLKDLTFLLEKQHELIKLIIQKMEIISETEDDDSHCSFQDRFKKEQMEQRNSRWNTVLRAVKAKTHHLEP
T3 sequence (Q7Z2W7 whole entry): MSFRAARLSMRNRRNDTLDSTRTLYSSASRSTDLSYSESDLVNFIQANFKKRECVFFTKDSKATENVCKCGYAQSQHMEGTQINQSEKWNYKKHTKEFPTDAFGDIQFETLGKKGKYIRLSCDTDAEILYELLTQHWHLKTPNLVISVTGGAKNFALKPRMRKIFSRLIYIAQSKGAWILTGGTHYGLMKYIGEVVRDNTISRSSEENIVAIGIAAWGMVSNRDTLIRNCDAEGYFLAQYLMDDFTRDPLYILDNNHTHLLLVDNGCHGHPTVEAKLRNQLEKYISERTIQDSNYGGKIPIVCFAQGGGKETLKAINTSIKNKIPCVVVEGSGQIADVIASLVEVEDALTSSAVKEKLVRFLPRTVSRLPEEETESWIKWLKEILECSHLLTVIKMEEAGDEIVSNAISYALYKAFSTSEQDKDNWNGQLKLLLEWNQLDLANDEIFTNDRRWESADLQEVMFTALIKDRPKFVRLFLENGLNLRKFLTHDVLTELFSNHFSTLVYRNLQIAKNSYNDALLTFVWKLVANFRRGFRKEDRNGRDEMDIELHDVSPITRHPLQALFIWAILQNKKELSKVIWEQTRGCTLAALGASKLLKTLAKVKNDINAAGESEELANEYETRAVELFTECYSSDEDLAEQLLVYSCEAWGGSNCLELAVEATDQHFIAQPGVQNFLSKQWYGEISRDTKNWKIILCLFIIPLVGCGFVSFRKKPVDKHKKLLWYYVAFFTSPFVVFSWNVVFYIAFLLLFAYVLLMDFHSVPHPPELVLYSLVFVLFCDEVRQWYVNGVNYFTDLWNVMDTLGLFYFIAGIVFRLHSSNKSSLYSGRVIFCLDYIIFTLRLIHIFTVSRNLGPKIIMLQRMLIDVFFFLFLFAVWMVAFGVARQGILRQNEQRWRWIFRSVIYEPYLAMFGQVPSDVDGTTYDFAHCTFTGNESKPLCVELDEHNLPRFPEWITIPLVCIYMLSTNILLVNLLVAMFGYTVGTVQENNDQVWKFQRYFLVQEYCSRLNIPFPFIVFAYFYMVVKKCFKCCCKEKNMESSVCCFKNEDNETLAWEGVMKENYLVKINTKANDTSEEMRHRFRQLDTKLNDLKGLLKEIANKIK

Compound	insulin sensitivity (mice [1])	body weight gain (mice [2])	short term food intake (mice [3])	activation of TRPV1 (TRPV1 [4])	gastric emptying (mice [5])	pEC50 (TRPA1 [6])	desensitization of TRPA1 (TRPA1 [7])	desensitization of TRPM8 (TRPM8 [8])	desensitization of TRPV1 (TRPV1 [9])	activation of TRPV1 (TRPV1 [10])	activation of TRPA1 (TRPA1 [11]; FIG. 7, diamonds)	efficacy of TRPA1 activation relative to cinnamaldehyde (TRPA1 [11]; relative to known TRPA1 agonist cinnamaldehyde) [%]	activation of hTRPM8 (TRPM8 [12])	activation of "empty" cells ("empty" cells)
O=CC=Cc1ccccc1 [cinnamaldehyde]	improved insulin sensitivity	gained less weight	reduction in short term food intake	not	delayed gastric emptying	~4.22								
CC(C)c1ccc(C=O)cc1 [cuminaldehyde]							does not desensitize	does not desensitize	does not desensitize	no activation was observed	activated TRPA1 (diamonds) in a dose-dependent fashion	140	no activation was observed	no activation was observed
